Data on 19 compounds can be found in patent US8119647B2, “Fused pyrimidineone compounds as TRPV3 modulators” (Glenmark Pharmaceuticals S.A., priority 2008, dated 2012).

Read-outs that look alike come from different tables or passages of the source.

One may read the inhibition as the percentage by which the read-out fell short of the control. The term IC50 denotes the concentration that gives 50% inhibition.

The experiment addresses T1, Human TRPV3 (Homo sapiens, UniProt Q8NET8).
T1 construct: expressed in transfected cells; host or cells: CHO cells (G-418 selection)
T1 sequence (Q8NET8 1-790): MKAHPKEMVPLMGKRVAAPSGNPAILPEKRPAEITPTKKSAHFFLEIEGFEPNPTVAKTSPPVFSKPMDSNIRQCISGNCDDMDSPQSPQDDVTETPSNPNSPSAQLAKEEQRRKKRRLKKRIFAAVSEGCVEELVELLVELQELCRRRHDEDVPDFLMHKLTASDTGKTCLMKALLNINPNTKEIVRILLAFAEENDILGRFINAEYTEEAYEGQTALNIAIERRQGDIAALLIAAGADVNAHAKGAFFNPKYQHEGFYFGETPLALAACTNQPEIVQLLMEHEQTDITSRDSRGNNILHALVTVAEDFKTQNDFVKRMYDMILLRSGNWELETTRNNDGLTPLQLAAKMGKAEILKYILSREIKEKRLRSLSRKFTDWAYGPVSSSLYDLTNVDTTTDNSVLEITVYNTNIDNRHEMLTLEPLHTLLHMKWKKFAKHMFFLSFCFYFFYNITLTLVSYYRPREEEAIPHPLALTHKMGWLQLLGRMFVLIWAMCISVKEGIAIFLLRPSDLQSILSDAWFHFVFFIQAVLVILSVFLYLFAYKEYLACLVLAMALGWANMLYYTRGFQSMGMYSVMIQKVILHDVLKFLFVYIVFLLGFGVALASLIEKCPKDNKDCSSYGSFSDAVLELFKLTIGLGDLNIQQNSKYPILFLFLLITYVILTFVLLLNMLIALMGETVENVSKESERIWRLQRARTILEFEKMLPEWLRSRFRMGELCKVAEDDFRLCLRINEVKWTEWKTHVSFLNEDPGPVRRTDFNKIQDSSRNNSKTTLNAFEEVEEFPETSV
In words: Screening for TRPV3 antagonist using the 45Calcium uptake assay (inhibition of 2-APB induced cellular uptake of radioactive calcium). It counts as cell-based. The settings on record: for inhibition at 1 µM / Percentage inhibition at 1.0 μM: 1.0 μM test compound; for inhibition at 1 µM: read-out: Percentage inhibition at 1.0 μM; for inhibition at 10 µM: read-out: Percentage inhibition at 10.0 μM; for IC50: class symbols. The text has this:
The illustrative examples of the present invention are screened for TRPV3 activity according to a modified procedure described in Tóth, A., Kedei, N., Wang, Y. and Blumberg, P. M. Life Sciences (2003), 73, 487-498. The screening of the compounds can be carried out by other methods and procedures known to a person skilled in the art. Such screening methods may be found in (a) Hu, H.-Z. et al. J. Biol. Chem. (2004), 279, 35741-35747; (b) Smith, G. D. et al. Nature (2002), 418, 186-190; (c) Peier, A. M. et al. Science (2002), 296, 2046-2049.
Screening for TRPV3 Antagonist Using the ^45Calcium Uptake Assay:
The inhibition of TRPV3 receptor activation was followed as inhibition of 2-aminoethoxydiphenylborate (2-APB) induced cellular uptake of radioactive calcium. Test compounds were dissolved in dimethyl sulfoxide (DMSO) to prepare 20 mM stock solution and then diluted using plain medium with DMEM/F-12 containing 1.8 mM CaCl2 to get desired concentration. Final concentration of DMSO in the reaction was 0.5% (v/v). Human TRPV3 expressing CHO cells were grown in DMEM/F-12 medium with 10% FBS, 1% penicillin-streptomycin solution, 400 μg/ml of G-418. Cells were seeded 24 h prior to the assay in 96 well plates so as to get ˜50,000 cells per well on the day of experiment. Cells were treated with test compounds for 10 minutes followed by addition of 2-APB at a final concentration of 500 μM and 5 μCi/ml ^45Ca^+2 for 4 minutes. Cells were washed and lysed using buffer containing 1% Triton X-100, 0.1% deoxycholate and 0.1% SDS. Radioactivity in the lysate was measured in Packardt Top count after addition of liquid scintillant. Concentration response curves were plotted as a % of maximal response obtained in the absence of test antagonist. IC50 value was calculated from concentration response curve by nonlinear regression analysis using GraphPad PRISM software.
Percentage inhibition at concentrations of 1.0 μM and 10.0 μM are given in the table along with IC50 (nM) values for selected examples.

Where [1] appears, read: human TRPV3 expressing CHO cells, 2-APB 500 μM.
The mark [2] stands for this setting: 10.0 μM test compound, human TRPV3 expressing CHO cells, 2-APB 500 μM.

As to `COc1cccc(/C=C/c2nc3sccn3c(=O)c2-c2ccc(C#N)cc2)c1OCC1CC1` [Example 16, 4-{7-[(E)-2-[2-(Cyclopropylmethoxy)-3-methoxyphenyl]-1-ethenyl}-5-oxo-5H-[1,3]thiazolo[3,2-a]pyrimidin-6-yl}benzonitrile], under setting [1], the inhibition at 1 µM worked out at 59.3% and the IC50 is 500 to 1000 nM. Further, the inhibition at 10 µM under setting [2] turned out to be 91.7%.
On the same counts, the results for `COc1cccc(/C=C/c2nc3sccn3c(=O)c2-c2ccc(N(C)C)cc2)c1OCC(C)C` [Example 41, 6-(4-Dimethylaminophenyl)-7-[(E)-2-(2-isobutoxy-3-methoxyphenyl)-1-ethenyl]-5H-[1,3]thiazolo[3,2-a]pyrimidin-5-one] are 75.5%, 250 to 500 nM and 84.5%.
Turning to `O=c1c(-c2ccc(OC(F)(F)F)cc2)c(/C=C/c2cccc(OC(F)F)c2OCC2CC2)nc2sccn12` [Example 63, 7-{(E)-2-[2-(Cyclopropylmethoxy)-3-difluoromethoxyphenyl]-1-ethenyl}-6-(4-trifluoromethoxyphenyl)-5H-[1,3]thiazolo[3,2-a]pyrimidin-5-one], under setting [1], the inhibition at 1 µM was determined as 81.4% and the IC50 was less than 250 nM. Moreover, under setting [2], the inhibition at 10 µM worked out at 91.8%.
For the compound `COCCOc1c(/C=C/c2nc3sccn3c(=O)c2-c2ccc(C#N)cc2)cccc1OC` [Example 14, 4-{7-[(E)-2-(3-Methoxy-2-(2-methoxyethoxy)phenyl]-1-ethenyl}-5-oxo-5H-[1,3]-thiazolo[3,2-a]pyrimidin-6-yl}benzonitrile], the inhibition at 1 µM under setting [1] turned out to be 41%. Also, the inhibition at 10 µM under setting [2] stood at 88.1%.
`COc1cccc(/C=C/c2nc3sc4ccccc4n3c(=O)c2-c2ccc(C#N)cc2)c1OCCC(C)C` [Example 88, 4-{2-[(E)-2-[2-(3-Methylbutoxy-3-methoxy]phenyl}-1-ethenyl]-4-oxo-4H-benzo[4,5]-[1,3]thiazolo-[3,2]pyrimidin-3-yl)benzonitrile]: under setting [1], the “Percentage inhibition at 1.0 μM” value is given as 32.87%. Moreover, the “Percentage inhibition at 10.0 μM” value under setting [2] is listed as 51.88%.
In the case of `COc1cccc(/C=C/c2nc3sccn3c(=O)c2-c2ccc(C#N)cc2)c1OCC(C)C` [Example 12, 4-{7-[(E)-2-(2-Isobutoxy-3-methoxyphenyl)-1-ethenyl]-5-oxo-5H-[1,3]thiazolo[3,2-a]-pyrimidin-6-yl}benzonitrile], under setting [1], the inhibition at 1 µM stood at 74.7% and the IC50 was less than 250 nM. Also, the inhibition at 10 µM under setting [2] was 94.8%.
As to `COc1cccc(/C=C/c2nc3sccn3c(=O)c2-c2ccccc2)c1OCC1CC1` [Example 2, 7-{(E)-2-[2-(Cyclopropylmethoxy)-3-methoxyphenyl]vinyl}-6-phenyl-5H-[1,3]thiazolo[3,2-a]pyrimidin-5-one], under setting [1], the inhibition at 1 µM is 10.4% and the half-inhibitory concentration (IC50) fell in the range of 1000 to 10000 nM. Moreover, the inhibition at 10 µM under setting [2] worked out at 73.1%.
On the same counts, the results for `COc1cccc(/C=C/c2nc3sccn3c(=O)c2-c2ccc(C#N)cc2)c1OCC1CCC1` [Example 17, 4-{7-[(E)-2-(2-Cyclobutylmethoxy-3-methoxy)phenyl-1-ethenyl]-5-oxo-5H-[1,3]-thiazolo[3,2-a]pyrimidin-6-yl}benzonitrile] are 73%, less than 250 nM and 91.1%.
For “7-[(E)-2-(4-Chlorophenyl)vinyl]-6-phenyl-5H-[1,3]thiazolo[3,2-a]pyrimidin-5-one [Example 1]”, the “Percentage inhibition at 1.0 μM” value under setting [1] worked out at 6.9%. Further, the “Percentage inhibition at 10.0 μM” value under setting [2] came out at 14.4%.
On the same counts, the results for `O=c1c(-c2ccc(OC(F)(F)F)cc2)c(/C=C/c2cccc(O)c2O)nc2sccn12` [Example 59] are 3.68% and 0.00%.
For `CCOCCOc1c(/C=C/c2nc3sc4ccccc4n3c(=O)c2-c2ccc(OC(F)(F)F)cc2)cccc1OC` [Example 97, 2-{(E)-2-[(2-Ethoxyethoxy)-3-methoxyphenyl]-1-ethenyl}-3-(4-trifluoromethoxy-phenyl)-4H-benzo[4,5][1,3]thiazolo-[3,2-a]pyrimidin-4-one], the inhibition at 1 µM under setting [1] turned out to be 20.2%. In addition, under setting [2], the inhibition at 10 µM was determined as 39.3%.
For the compound `CCOc1ccc(-c2c(/C=C/c3cccc(OC)c3OCC3CC3)nc3sccn3c2=O)cc1` [Example 44, 7-[(E)-2-(2-Cyclopropylmethoxy-3-methoxyphenyl)-1-ethenyl]-6-(4-ethoxyphenyl)-5H-[1,3]thiazolo[3,2-a]pyrimidin-5-one], the inhibition at 1 µM under setting [1] was 44%. For the same compound, the inhibition at 10 µM under setting [2] is 88.6%.
Consider `COc1cccc(/C=C/c2nc3sccn3c(=O)c2-c2ccc(OC(F)(F)F)cc2)c1OC1CCCCC1` [Example 72, 7-[(E)-2-(2-Cyclohexyloxy-3-methoxyphenyl)-1-ethenyl]-6-[4-(trifluoromethoxy)phenyl]-5H-[1,3]thiazolo[3,2-a]pyrimidin-5-one], for which, under setting [1], the inhibition at 1 µM was 58.1% and the IC50 lay in the range of 250 to 500 nM. In addition, under setting [2], the inhibition at 10 µM worked out at 82.1%.
Regarding `COc1cccc(/C=C/c2nc3sccn3c(=O)c2-c2ccc(C(F)(F)F)cc2)c1OCc1ccccn1` [Example 36], under setting [1], the “Percentage inhibition at 1.0 μM” value is given as 11.2%. The “Percentage inhibition at 10.0 μM” value under setting [2] was found to be 0.0%.
Regarding `COc1cccc(/C=C/c2nc3sccn3c(=O)c2-c2ccc(C(F)(F)F)cc2)c1OC1CCCC1` [Example 35, 7-[(E)-2-(2-Cyclopentyloxy-3-methoxyphenyl)-1-ethenyl]-6-[4-(trifluoromethyl)phenyl]-5H-[1,3]thiazolo[3,2-a]pyrimidin-5-one], the inhibition at 1 µM under setting [1] was 29.4%. The inhibition at 10 µM under setting [2] worked out at 68.5%.
Consider `COc1cccc(/C=C/c2nc3sccn3c(=O)c2-c2ccc(C#N)cc2)c1OCc1ccccn1` [Example 21], for which the “Percentage inhibition at 10.0 μM” value turned out to be 11.60%. For the same compound, under setting [1], the “Percentage inhibition at 1.0 μM” value is on record as 14.88%.
`COc1cccc(/C=C/c2nc3scc(C(F)(F)F)n3c(=O)c2-c2ccc(C#N)cc2)c1OCC(C)(C)C` [Example 82, 4-{7-[(E)-2-(3-Methoxy-2-neopentyloxyphenyl)-1-ethenyl]-5-oxo-3-(trifluoromethyl)-5H-[1,3]thiazolo[3,2-a]pyrimidin-6-yl}benzonitrile]: the inhibition at 1 µM under setting [1] stood at 57.4%. Besides, under setting [2], the inhibition at 10 µM came out at 70.3%.
In the case of `CCOCCOc1c(/C=C/c2nc3sccn3c(=O)c2-c2ccc(C#N)cc2)cccc1OC` [Example 15, 4-{7-[(E)-2-(2-Ethoxyethoxy-3-methoxyphenyl]-1-ethenyl}-5-oxo-5H-[1,3]thiazolo[3,2-a]pyrimidin-6-yl}benzonitrile], under setting [1], the inhibition at 1 µM came to 73.1% and the IC50 was in the range of 500 to 1000 nM. For the same compound, under setting [2], the inhibition at 10 µM was found to be 94.8%.
On the same counts, the results for `COc1cccc(/C=C/c2nc3sccn3c(=O)c2-c2ccc(C(F)(F)F)cc2)c1OCC1CC1` [Example 33, {7-[(E)-2-(2-Cyclopropylmethoxy)-3-methoxyphenyl]-1-ethenyl]-6-[4-(trifluoromethyl)phenyl]-5H-[1,3]thiazolo[3,2-a]pyrimidin-5-one] are 85.3%, less than 250 nM and 97.4%.
